From US4746648A, “Peptide derivatives which inhibit renin and acid proteases” (Sanofi; Institut National de la Recherche Medicale, priority 1985, dated 1988)
Starred links: 1 amine or outer side, 2 acyl side, 3 side chain; linkers in the order of their positions; H or OH if unused. Non-standard residues stand in square brackets, D forms with d. Residues, ends and D or L forms follow the SMILES beside them. ξ: configuration not given here. *: point of attachment. X9 = CCn1cnc(C[C@H](N[*:1])C(=O)[*:2])c1; His(τ-Me) = Cn1cnc(C[C@H](N)C(=O)O)c1; Sta = CC(C)C[C@H](N)[C@@H](O)CC(=O)O; X10 = Cc1nc(C(N[*:1])C(=O)[*:2])cs1; Gly(cPent) = N[C@H](C(=O)O)C1CCCC1; Phg = N[C@H](C(=O)O)c1ccccc1; ξ3Pal = NC(Cc1cccnc1)C(=O)O; ξ4Pal = NC(Cc1ccncc1)C(=O)O; Isovaleryl = CC(C)CC(=O)*; Boc = CC(C)(C)OC(=O)*; OBn = c1ccc(CO*)cc1; X4 = c1ccc(C*)nc1; tBu = CC(C)(C)*

target: T1, human plasma renin activity (PRA) (Homo sapiens, UniProt P00797); experiment: Inhibition of human plasma renin activity (PRA) in vitro, angiotensin I released measured by radioimmunoassay; assay type: biochemical; conditions: human plasma pool rich in renin, 60 min at 37° C., phosphate buffer pH 7.4; -log IC50
T1 construct: from tissue; host or cells: human plasma pool
T1 sequence (P00797 67-406): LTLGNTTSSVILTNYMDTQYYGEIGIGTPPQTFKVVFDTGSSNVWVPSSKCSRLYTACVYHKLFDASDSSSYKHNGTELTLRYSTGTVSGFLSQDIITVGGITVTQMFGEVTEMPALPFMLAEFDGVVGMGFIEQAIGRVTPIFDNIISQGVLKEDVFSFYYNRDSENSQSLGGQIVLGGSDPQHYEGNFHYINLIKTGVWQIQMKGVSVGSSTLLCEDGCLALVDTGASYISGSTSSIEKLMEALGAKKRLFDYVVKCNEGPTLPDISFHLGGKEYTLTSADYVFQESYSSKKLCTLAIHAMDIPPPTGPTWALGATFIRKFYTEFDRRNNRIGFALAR
Procedure: Human plasma contains the substrate angiotensinogen and the enzyme renin. […] An inhibitor of the conversion enzyme, phenylmethylsulfonyl fluoride (PMSF), is added to the incubation medium.
420 microliters of human plasma
11 to 50 microliters of the product to be studied, at variable concentrations
A solution of acetic acid in methanol (19/1 by volume) and a solution of sodium hydroxide in methanol (2/1 by volume) are prepared. In a mixture of equal volumes of these 2 solutions, a 0.001M stock solution of the peptide is prepared. The subsequent dilutions of the peptide are then made up in the phosphate buffer.
The results are expressed by their logarithmic value (-log IC50).

Compound | Inhibition of human PRA -log IC50 M pH 7.4
Boc-Phe-(Pyr-2)Ala-Sta-Leu-Phe-OMe [SR 43150] | 5.21 -log M
Boc--Phe--(1-methylimidazol-2-yl)Ala--AHPPA--Ala--Sta--OCH3 [SR 43428] | 6.16 -log M

same assay, conditions: human plasma pool rich in renin, 60 min at 37° C., phosphate buffer pH 7.4; -log IC50; listed as 41 151

Compound | Inhibition of human PRA -log IC50 M pH 7.4
Boc-Phe-(Pyr-2)Ala-Sta-Leu-Phe-OMe [SR 43151] | 6.66 -log M

same assay, conditions: read-out: Inhibition of human PRA -log IC50 M pH 7.4 (converted)

Compound | IC50 [nM]
COC(=O)C[C@H](O)[C@H](CC(C)C)NC(=O)[C@H](C)NC(=O)C[C@H](O)[C@H](CC(C)C)NC(=O)[C@H](COCc1ccccn1)NC(=O)[C@H](Cc1ccccc1)NC(=O)OC(C)(C)C [SR 43555, Boc--Phe--((Pyr--2)CH2 O)Ser--Sta--Ala--Sta--OMe] (Boc-FS(X4)[Sta]A[Sta]-OMe) | 316
COC(=O)C[C@H](O)[C@H](CC(C)C)NC(=O)[C@H](C)NC(=O)C[C@H](O)[C@H](CC(C)C)NC(=O)[C@@H](NC(=O)[C@H](Cc1ccccc1)NC(=O)OC(C)(C)C)c1ccccc1 [SR 42823, Boc--Phe--Phg--Sta--Ala--Sta--OMe] (Boc-F[Phg][Sta]A[Sta]-OMe) | 93.3
COC(=O)[C@H](CC(C)C)NC(=O)[C@H](C)NC(=O)C[C@H](O)[C@H](CC(C)C)NC(=O)C(NC(=O)[C@H](Cc1ccccc1)NC(=O)OC(C)(C)C)c1csc(C)n1 (stereo partly drawn) [SR 43059, Boc-Phe-(2-methylthiazol-4-yl)Gly-Sta-Ala-Leu-OMe] (Boc-F[X10][Sta]AL-OMe) | 3020
CCn1cnc(C[C@H](NC(=O)[C@H](Cc2ccccc2)NC(=O)OC(C)(C)C)C(=O)N[C@@H](CC(C)C)[C@@H](O)CC(=O)N[C@@H](C)C(=O)N[C@@H](CC(C)C)[C@@H](O)CC(=O)OC)c1 [SR 43391, Boc--Phe--(tauEt)His--Sta--Ala--Sta--OMe] (Boc-F[X9][Sta]A[Sta]-OMe) | 64.6
COC(=O)C[C@H](O)[C@H](CC(C)C)NC(=O)[C@H](C)NC(=O)C[C@H](O)[C@H](CC(C)C)NC(=O)[C@@H](NC(=O)[C@H](Cc1ccccc1)NC(=O)OC(C)(C)C)C1CCCC1 [SR 43554, Boc--Phe--Cpg--Sta--Ala--Sta--OMe] (Boc-F[Gly(cPent)][Sta]A[Sta]-OMe) | 37.2
COC(=O)[C@H](Cc1ccccc1)NC(=O)[C@H](CC(C)C)NC(=O)C[C@H](O)[C@H](CC(C)C)NC(=O)C(Cc1ccncc1)NC(=O)[C@H](Cc1ccccc1)NC(=O)OC(C)(C)C (stereo partly drawn) [SR 43144, Boc-Phe-(Pyr-4)Ala-Sta-Leu-Phe-OMe] (Boc-F[ξ4Pal][Sta]LF-OMe) | 1320
COC(=O)[C@H](Cc1ccccc1)NC(=O)[C@H](CC(C)C)NC(=O)C[C@H](O)[C@H](CC(C)C)NC(=O)C(Cc1cccnc1)NC(=O)[C@H](Cc1ccccc1)NC(=O)OC(C)(C)C (stereo partly drawn) [SR 43064, Boc-Phe-(Pyr-3)Ala-Sta-Leu-Phe-OMe] (Boc-F[ξ3Pal][Sta]LF-OMe) | 316
COC(=O)[C@H](CC(C)C)NC(=O)[C@H](C)NC(=O)C[C@H](O)[C@H](CC(C)C)NC(=O)[C@H](CC(=O)OCc1ccccc1)NC(=O)[C@H](Cc1ccccc1)NC(=O)OC(C)(C)C [SR 42926, Boc-Phe-(PhCH2)Asp-Sta-Ala-Leu-OMe] (Boc-FD(OBn)[Sta]AL-OMe) | 398
COC(=O)C[C@H](O)[C@H](CC(C)C)NC(=O)[C@H](C)NC(=O)C[C@H](O)[C@H](CC(C)C)NC(=O)C(Cc1cccnc1)NC(=O)[C@H](Cc1ccccc1)NC(=O)OC(C)(C)C (stereo partly drawn) [SR 43429, Boc-Phe-(Pyr-3)Ala-Sta-Ala-Sta-OMe] (Boc-F[ξ3Pal][Sta]A[Sta]-OMe) | 417
COC(=O)C[C@H](O)[C@H](CC(C)C)NC(=O)[C@H](C)NC(=O)C[C@H](O)[C@H](CC(C)C)NC(=O)[C@H](COC(C)(C)C)NC(=O)[C@H](Cc1ccccc1)NC(=O)OC(C)(C)C [SR 43297, Boc--Phe--((CH3)3 CO)Ser--Sta--Ala--Sta--OMe] (Boc-FS(tBu)[Sta]A[Sta]-OMe) | 2140
CC(C)CC(=O)N[C@@H](Cc1ccccc1)C(=O)N[C@@H](Cc1cn(C)cn1)C(=O)N[C@@H](CC(C)C)[C@@H](O)CC(=O)N[C@@H](C)C(=O)N[C@@H](CC(C)C)[C@@H](O)CC(=O)O [SR 43761, iVa--Phe--(tauMe)His--Sta--Ala--Sta--OH] (Isovaleryl-F[His(τ-Me)][Sta]A[Sta]-OH) | 151
